# Laboratory results: publication PMC8662641, “Site-Specific Labeling of Endogenous Proteins Using CoLDR Chemistry” (Journal of the American Chemical Society, 2021)
# pIC50, pKd: −log10 of the molar value. Structures can show the parent of a compound that is named as a salt.
# Experiments:
# Bcr-Abl(T315I) = tested on: Bcr-Abl(T315I); design: method as in selleck (supplier comment); details: ref selleck (supplier comment); cited from earlier work
# Bcr-Abl(WT) = tested on: Bcr-Abl(WT); design: method as in selleck (supplier comment); details: ref selleck (supplier comment); cited from earlier work
# BTK = BTK (Homo sapiens, UniProt Q06187); design: BTK kinase domain was expressed and purified as previously reported; made in house; method as in Reddi et al., J. Am. Chem. Soc. 2021, 143 (13), 4979–4992; details: ref Reddi et al., J. Am. Chem. Soc. 2021, 143 (13), 4979–4992; cited from earlier work
# BTK-1h = target: T1, BTK-1h (Homo sapiens, UniProt Q06187); assay: High-throughput screening with 1h-labeled BTK; assay type: binding
# T1 construct: The BTK kinase domain was diluted to 2 μM in the buffer, and 2 μM 1h was added; made in house
# Description: The collection was composed of BTK binding compounds obtained in our previous luminescence screen[37] (Data set S2). […] The resulting BTK-1h (50 μL) was added to the inhibitors.
# G-quadruplexe = target: G-quadruplexe; design: method as in selleck (supplier comment); details: cell-free assay; ref selleck (supplier comment); cited from earlier work
# [1] = Dataset S2A, 200 μM compound, BTK-1h, 32 °C, 10 min
# [2] = Dataset S2C, BTK-1h with inhibitor
# T1 sequence (Q06187 402-655): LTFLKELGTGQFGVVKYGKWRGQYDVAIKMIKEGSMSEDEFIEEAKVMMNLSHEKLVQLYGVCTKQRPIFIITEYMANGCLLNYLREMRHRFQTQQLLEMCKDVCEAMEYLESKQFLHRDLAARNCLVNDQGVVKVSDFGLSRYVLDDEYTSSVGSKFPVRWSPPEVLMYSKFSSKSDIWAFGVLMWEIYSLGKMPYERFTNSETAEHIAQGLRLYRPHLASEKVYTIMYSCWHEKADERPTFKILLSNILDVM
# BTK, sequence (Q06187 402-655 limits assumed): as the sequence (Q06187 402-655) above
SMILES,pIC50 (Bcr-Abl(T315I)),pIC50 (Bcr-Abl(WT)),BTK Inhibition reported in luminescence assay* (BTK),FI (650)/FI (620) (BTK-1h; [1]),FI (BTK-1h)/FI (BTK-1h+Inhibitor) at 620 nm (BTK-1h; [1]),FI (650)/FI (620) (BTK-1h; [2]),pKd (G-quadruplexe)
"Cc1ccc(C(=O)Nc2ccc(CN3CCN(C)CC3)c(C(F)(F)F)c2)cc1C#Cc1cnc2[nH]ncc2c1 [PCM-0215209-001, GZD824 Dimesylate]",9.17,9.47,114.5,1.799,1.6661,1.6661,
"NCCOc1cc(C(=O)Nc2cc(OCCN)c3ccccc3n2)nc(C(=O)Nc2cc(OCCN)c3ccccc3n2)c1 [PCM-0215476-001, Pyridostatin Trifluoroacetate Salt]",,,59.5,2.671,1.539,1.539,6.31
